Reference: patent publication US8778871B2 (Takeda Pharmaceutical Company Limited, priority 2004, dated 2014)
Non-standard residues stand in square brackets, D forms with d. Residues, ends and D or L forms follow the SMILES beside them. Primed or numbered codes have the meaning given here. Arg(Me) = CNC(=N)NCCC[C@H](N)C(=O)O; Abu = CC[C@H](N)C(=O)O; Aib = CC(C)(N)C(=O)O; azaGly = NNC(=O)O

Biological target: T1, hOT7T175 (Homo sapiens, UniProt Q969F8, L364H)
T1 construct: expressed in transfected cells
T1 sequence (Q969F8 whole entry L364H): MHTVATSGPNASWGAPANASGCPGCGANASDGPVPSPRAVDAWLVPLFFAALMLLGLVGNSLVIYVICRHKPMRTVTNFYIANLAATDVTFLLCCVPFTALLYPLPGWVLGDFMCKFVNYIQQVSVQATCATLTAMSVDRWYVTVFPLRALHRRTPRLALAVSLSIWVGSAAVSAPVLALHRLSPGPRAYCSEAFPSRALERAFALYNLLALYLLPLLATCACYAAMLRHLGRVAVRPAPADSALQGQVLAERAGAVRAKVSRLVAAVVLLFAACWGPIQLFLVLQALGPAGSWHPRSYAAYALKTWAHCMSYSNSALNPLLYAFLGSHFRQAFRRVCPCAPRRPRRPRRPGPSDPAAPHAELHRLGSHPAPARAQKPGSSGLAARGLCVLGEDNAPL
Assay type: cell-based
Conditions: hOT7T175/CHO, FLIPR, evaluation for 40 seconds after initiation of the reaction
Experimental: The intracellular Ca ion level-increasing activity was measured using FLIPR as in TEST EXAMPLE 2.

| Compound | Specific Act. (EC50/MS10 EC50) |
| --- | --- |
| 2-Naphthoyl-Asn-Ser-Phe-AzaGly-Leu-Arg(Me)-Trp-NH2 [Compound No. 535] | 0.8 |
| 3-Phenylpropionyl-Asn-Aze(2)-Phe-AzaGly-Leu-Arg(Me)-Trp-NH2 [Compound No. 532] | 1.0 |
| 3-Phenylpropionyl-Asn-D-Pro-Phe-AzaGly-Leu-Arg(Me)-Trp-NH2 [Compound No. 533] | 9.7 |
| 3-Phenylpropionyl-Asn-Pic(2)-Phe-AzaGly-Leu-Arg(Me)-Trp-NH2 [Compound No. 531] | 1.8 |
| 3-Phenylpropionyl-Asn-Pro-Phe-AzaGly-Leu-Arg(Me)-Trp-NH2 [Compound No. 524] | 1.1 |
| 3-Phenylpropionyl-Asn-Ser(Ac)-Phe-AzaGly-Leu-Arg(Me)-Trp-NH2 [Compound No. 546] | 1.9 |
| 3-Phenylpropionyl-Asn-Ser-Cha-Gly-Leu-Arg(Me)-Trp-NH2 [Compound No. 518] | 10.5 |
| CNC(=N)NCCC[C@H](NC(=O)[C@H](CC(C)C)NC(=O)CNC(=O)[C@H](Cc1ccccc1)NC(=O)[C@H](CO)NC(=O)[C@H](CC(N)=O)NC(=O)[C@H](Cc1c[nH]c2ccccc12)NC(=O)[C@H](CC(N)=O)NC(=O)[C@@H](N)Cc1ccc(O)cc1)C(=O)N[C@@H](Cc1ccccc1)C(N)=O [Compound No. 82] | 1.0 |
| CNC(=N)NCCC[C@H](NC(=O)[C@H](CC(C)C)NC(=O)NNC(=O)[C@H](Cc1ccccc1)NC(=O)[C@H](CO)NC(=O)[C@H](CC(N)=O)NC(=O)[C@H](CO)NC(=O)[C@H](N)Cc1ccc(O)cc1)C(=O)N[C@@H](Cc1ccccc1)C(N)=O [Compound No. 239, D-Tyr-Ser-Asn-Ser-Phe-AzaGly-Leu-Arg(Me)-Phe-NH2] (H-[dY]SNSF[azaGly]L[Arg(Me)]F-NH2) | 6.7 |
| CC[C@H](C)[C@H](NC(=O)[C@H](N)Cc1ccc(O)cc1)C(=O)N[C@@H](CC(N)=O)C(=O)N[C@@H](CO)C(=O)N[C@@H](Cc1ccccc1)C(=O)NNC(=O)N[C@@H](CC(C)C)C(=O)N[C@@H](CCCNC(=N)NC)C(=O)N[C@@H](Cc1ccccc1)C(N)=O [Compound No. 240, D-Tyr-Ile-Asn-Ser-Phe-AzaGly-Leu-Arg(Me)-Phe-NH2] (H-[dY]INSF[azaGly]L[Arg(Me)]F-NH2) | 4.9 |
| Ac-D-Tyr-D-Pro-Asn-Thr-Phe-AzaGly-Leu-Arg(Me)-Trp-NH2 (Ac-[dY][dP]NTF[azaGly]L[Arg(Me)]W-NH2; SMILES CNC(=N)NCCC[C@H](NC(=O)[C@H](CC(C)C)NC(=O)NNC(=O)[C@H](Cc1ccccc1)NC(=O)[C@@H](NC(=O)[C@H](CC(N)=O)NC(=O)[C@H]1CCCN1C(=O)[C@@H](Cc1ccc(O)cc1)NC(C)=O)[C@@H](C)O)C(=O)N[C@@H](Cc1c[nH]c2ccccc12)C(N)=O) [Compound No. 661] | 8.5 |
| Ac-D-Tyr-D-Pya(4)-Asn-Thr-D-Phe-AzaGly-Leu-Arg(Me)-Trp-NH2 [Compound No. 603] | 1.7 |
| Ac-D-Tyr-D-Pya(4)-Asn-Thr-Phe-AzaGly-Leu-Arg(Me)-Phe-NH2 [Compound No. 685] | 4.8 |
| Ac-D-Tyr-D-Trp-Alb-Ser-Phe-AzaGly-Leu-Arg(Me)-Trp-NH2 [Compound No. 579] | 0.6 |
| Ac-D-Tyr-D-Trp-Asn-Aze(2)-Phe-AzaGly-Leu-Arg(Me)-Trp-NH2 [Compound No. 563] | 0.7 |
| Ac-D-Tyr-D-Trp-Asn-Thr-Phe-AzaGly-Abu-Arg(Me)-Trp-NH2 (Ac-[dY][dW]NTF[azaGly][Abu][Arg(Me)]W-NH2; SMILES CC[C@H](NC(=O)NNC(=O)[C@H](Cc1ccccc1)NC(=O)[C@@H](NC(=O)[C@H](CC(N)=O)NC(=O)[C@@H](Cc1c[nH]c2ccccc12)NC(=O)[C@@H](Cc1ccc(O)cc1)NC(C)=O)[C@@H](C)O)C(=O)N[C@@H](CCCNC(=N)NC)C(=O)N[C@@H](Cc1c[nH]c2ccccc12)C(N)=O) [Compound No. 698] | 2.2 |
| Ac-D-Tyr-D-Trp-Asn-Thr-Phe-AzaGly-Gln-Arg(Me)-Trp-NH2 (Ac-[dY][dW]NTF[azaGly]Q[Arg(Me)]W-NH2; SMILES CNC(=N)NCCC[C@H](NC(=O)[C@H](CCC(N)=O)NC(=O)NNC(=O)[C@H](Cc1ccccc1)NC(=O)[C@@H](NC(=O)[C@H](CC(N)=O)NC(=O)[C@@H](Cc1c[nH]c2ccccc12)NC(=O)[C@@H](Cc1ccc(O)cc1)NC(C)=O)[C@@H](C)O)C(=O)N[C@@H](Cc1c[nH]c2ccccc12)C(N)=O) [Compound No. 682] | 7.3 |
| Ac-D-Tyr-D-Trp-Asn-Thr-Phe-AzaGly-Ile-Arg(Me)-Trp-NH2 (Ac-[dY][dW]NTF[azaGly]I[Arg(Me)]W-NH2; SMILES CC[C@H](C)[C@H](NC(=O)NNC(=O)[C@H](Cc1ccccc1)NC(=O)[C@@H](NC(=O)[C@H](CC(N)=O)NC(=O)[C@@H](Cc1c[nH]c2ccccc12)NC(=O)[C@@H](Cc1ccc(O)cc1)NC(C)=O)[C@@H](C)O)C(=O)N[C@@H](CCCNC(=N)NC)C(=O)N[C@@H](Cc1c[nH]c2ccccc12)C(N)=O) [Compound No. 678] | 1.1 |
| Ac-D-Tyr-D-Trp-Asn-Thr-Phe-AzaGly-Leu-Arg(Me2)asym-Trp-NH2 [Compound No. 607] | 2.2 |
| Ac-D-Tyr-D-Trp-Asn-Thr-Phe-AzaGly-Leu-Arg(Me)-D-Trp-NH2 (Ac-[dY][dW]NTF[azaGly]L[Arg(Me)][dW]-NH2; SMILES CNC(=N)NCCC[C@H](NC(=O)[C@H](CC(C)C)NC(=O)NNC(=O)[C@H](Cc1ccccc1)NC(=O)[C@@H](NC(=O)[C@H](CC(N)=O)NC(=O)[C@@H](Cc1c[nH]c2ccccc12)NC(=O)[C@@H](Cc1ccc(O)cc1)NC(C)=O)[C@@H](C)O)C(=O)N[C@H](Cc1c[nH]c2ccccc12)C(N)=O) [Compound No. 689] | 2.3 |
| Ac-D-Tyr-D-Trp-Asn-Thr-Phe-AzaGly-Leu-Har(Me)-Trp-NH2 [Compound No. 646] | 1.8 |
| Ac-D-Tyr-D-Trp-Asn-Thr-Phe-AzaGly-Leu-Pya(4)-Trp-NH2 (Ac-[dY][dW]NTF[azaGly]L-{Pya(4)-Trp-NH2}) [Compound No. 688] | 9.7 |
| Ac-D-Tyr-D-Trp-Asn-Thr-Phe-AzaGly-γMeLeu-Arg(Me)-Trp-NH2 (Ac-[dY][dW]NTF[azaGly]-{γMeLeu-Arg(Me)-Trp-NH2}) [Compound No. 699] | 1.3 |
| Ac-D-Tyr-D-Trp-Asn-Thr-Phe-Gly-Aib-Arg(Me)-Trp-NH2 (Ac-[dY][dW]NTFG[Aib][Arg(Me)]W-NH2; SMILES CNC(=N)NCCC[C@H](NC(=O)C(C)(C)NC(=O)CNC(=O)[C@H](Cc1ccccc1)NC(=O)[C@@H](NC(=O)[C@H](CC(N)=O)NC(=O)[C@@H](Cc1c[nH]c2ccccc12)NC(=O)[C@@H](Cc1ccc(O)cc1)NC(C)=O)[C@@H](C)O)C(=O)N[C@@H](Cc1c[nH]c2ccccc12)C(N)=O) [Compound No. 700] | 0.8 |
| Ac-D-Tyr-D-Trp-Asn-Thr-PheΨ(CH2NH)Gly-Leu-Arg(Me)-Trp-NH2 [Compound No. 569] | 0.5 |
